Data published in PubChem BioAssay AID328 (DTP/NCI, 2004).
Several values for one entry are separate records, joined by “and”; a condition that tells them apart may be missing. Equal values may be shown once. Toxic doses and inconclusive results are not listed.

System: BDF1 mice, P388 leukemia ip, median survival T/C
Assay: NCI In Vivo Anticancer Drug Screen. Data for tumor model P388 Leukemia (intraperitoneal) in B6D2F1 (BDF1) mice
Settings: endpoint: median survival time, higher = longer survival
Summary of the method: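 Read-out is survival of treated animals expressed relative to the vehicle group, as a T/C ratio.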

[1] = dose: 100.0 mg/kg/injection, schedule: Q04DX003 (ip), vehicle: Klucel (hydroxypropylcellulose) (HPC)
[2] = dose: 200.0 mg/kg/injection, schedule: Q04DX003 (ip), vehicle: Klucel (hydroxypropylcellulose) (HPC)
[3] = dose: 50.0 mg/kg/injection, schedule: Q01DX009 (ip), vehicle: Klucel (hydroxypropylcellulose) (HPC)
[4] = dose: 100.0 mg/kg/injection, schedule: Q01DX009 (ip), vehicle: Klucel (hydroxypropylcellulose) (HPC)
[5] = dose: 50.0 mg/kg/injection, schedule: Q01DX009 (ip), vehicle: saline with Tween-80
[6] = dose: 100.0 mg/kg/injection, schedule: Q01DX009 (ip), vehicle: saline with Tween-80
[7] = dose: 200.0 mg/kg/injection, schedule: Q01DX009 (ip), vehicle: saline with Tween-80
[8] = dose: 6.25 mg/kg/injection, schedule: Q01DX009 (ip), vehicle: saline
[9] = dose: 12.5 mg/kg/injection, schedule: Q01DX009 (ip), vehicle: saline
[10] = dose: 50.0 mg/kg/injection, schedule: Q04DX003 (ip), vehicle: saline
[11] = dose: 100.0 mg/kg/injection, schedule: Q01DX009 (ip), vehicle: saline
[12] = dose: 100.0 mg/kg/injection, schedule: Q04DX003 (ip), vehicle: saline
[13] = dose: 200.0 mg/kg/injection, schedule: Q04DX003 (ip), vehicle: saline
[14] = dose: 400.0 mg/kg/injection, schedule: Q04DX003 (ip), vehicle: saline
[15] = dose: 200.0 mg/kg/injection, schedule: Q01DX009 (ip), vehicle: saline
[16] = dose: 400.0 mg/kg/injection, schedule: Q01DX009 (ip), vehicle: saline
[17] = dose: 25.0 mg/kg/injection, schedule: Q01DX009 (ip), vehicle: Klucel (hydroxypropylcellulose) (HPC)
[18] = dose: 100.0 mg/kg/injection, schedule: Q04DX003 (ip), vehicle: saline with Tween-80
[19] = dose: 200.0 mg/kg/injection, schedule: Q04DX003 (ip), vehicle: saline with Tween-80
[20] = dose: 400.0 mg/kg/injection, schedule: Q04DX003 (ip), vehicle: saline with Tween-80

NC(Cc1ccc(N(CCCl)CCCl)cc1)C(=O)O (stereo unspecified)
T/C (dose: 0.5 mg/kg/injection, schedule: Q01DX009 (ip), vehicle: Klucel (hydroxypropylcellulose) (HPC)): 179 % of control
T/C (dose: 1.0 mg/kg/injection, schedule: Q01DX009 (ip), vehicle: Klucel (hydroxypropylcellulose) (HPC)): 222 % of control
T/C (dose: 1.25 mg/kg/injection, schedule: Q01DX010 (ip), vehicle: saline): 181 % of control and 208 % of control
T/C (dose: 2.0 mg/kg/injection, schedule: Q01DX009 (ip), vehicle: Klucel (hydroxypropylcellulose) (HPC)): 239 % of control
T/C (dose: 2.0 mg/kg/injection, schedule: Q01DX010 (ip), vehicle: other): 300 % of control
T/C (dose: 2.5 mg/kg/injection, schedule: Q01DX010 (ip), vehicle: saline): 209 % of control and 216 % of control
T/C (dose: 4.0 mg/kg/injection, schedule: Q01DX009 (ip), vehicle: Klucel (hydroxypropylcellulose) (HPC)): 256 % of control
T/C (dose: 4.0 mg/kg/injection, schedule: Q01DX010 (ip), vehicle: other): 250 % of control
T/C (dose: 5.0 mg/kg/injection, schedule: Q01DX010 (ip), vehicle: saline): 233 % of control and 286 % of control
T/C (dose: 8.0 mg/kg/injection, schedule: Q01DX010 (ip), vehicle: other): 113 % of control
T/C (dose: 10.0 mg/kg/injection, schedule: Q01DX010 (ip), vehicle: saline): 100 % of control
T/C (dose: 16.0 mg/kg/injection, schedule: Q01DX010 (ip), vehicle: other): 90 % of control

c1ccc(C2SCCSCCS2)cc1
T/C [1]: 90 % of control
T/C [2]: 100 % of control
T/C (dose: 400.0 mg/kg/injection, schedule: Q04DX003 (ip), vehicle: Klucel (hydroxypropylcellulose) (HPC)): 100 % of control

CCCOc1cc([N+](=O)[O-])cc([N+](=O)[O-])c1
T/C (dose: 100.0 mg/kg/injection, schedule: Q01DX001 (ip), vehicle: saline with Tween-80): 104 % of control
T/C (dose: 200.0 mg/kg/injection, schedule: Q01DX001 (ip), vehicle: saline with Tween-80): 94 % of control

CCOC(=O)c1c(C)c2c(n1C)CCc1cn[nH]c1-2
T/C [3]: 103 % of control
T/C [4]: 120 % of control
T/C (dose: 200.0 mg/kg/injection, schedule: Q01DX009 (ip), vehicle: Klucel (hydroxypropylcellulose) (HPC)): 106 % of control

CN(C)C(=O)c1cccc(COc2ccc([N+](=O)[O-])cc2Cl)c1
T/C (dose: 100.0 mg/kg/injection, schedule: Q01DX001 (ip), vehicle: Klucel (hydroxypropylcellulose) (HPC)): 109 % of control
T/C (dose: 132.0 mg/kg/injection, schedule: Q01DX009 (ip), vehicle: saline sonified): 91 % of control
T/C (dose: 200.0 mg/kg/injection, schedule: Q01DX001 (ip), vehicle: Klucel (hydroxypropylcellulose) (HPC)): 109 % of control
T/C (dose: 200.0 mg/kg/injection, schedule: Q01DX009 (ip), vehicle: saline sonified): 87 % of control
T/C (dose: 300.0 mg/kg/injection, schedule: Q01DX009 (ip), vehicle: saline sonified): 87 % of control
T/C (dose: 400.0 mg/kg/injection, schedule: Q01DX001 (ip), vehicle: Klucel (hydroxypropylcellulose) (HPC)): 104 % of control

COc1cc2nc(C)n(C)c(=O)c2cc1OC
T/C [5]: 101 % of control
T/C [6]: 99 % of control
T/C [7]: 99 % of control

CC(C)(C)C(CO)CO
T/C [5]: 93 % of control
T/C [6]: 100 % of control
T/C [7]: 100 % of control

COc1ccc2[nH]c(=O)c(C)c(C)c2c1
T/C (dose: 3.12 mg/kg/injection, schedule: Q01DX009 (ip), vehicle: saline): 98 % of control
T/C [8]: 94 % of control
T/C [9]: 94 % of control
T/C (dose: 25.0 mg/kg/injection, schedule: Q01DX009 (ip), vehicle: saline): 92 % of control
T/C (dose: 25.0 mg/kg/injection, schedule: Q04DX003 (ip), vehicle: saline): 107 % of control
T/C (dose: 50.0 mg/kg/injection, schedule: Q01DX009 (ip), vehicle: saline): 96 % of control and 117 % of control
T/C [10]: 118 % of control
T/C [11]: 94 % of control
T/C [12]: 111 % of control
T/C [13]: 100 % of control
T/C [14]: 115 % of control

COc1cc2cc(-c3cc(OC)c(OC)c(OC)c3)c3c(c2cc1OC)CNC3=O
T/C [11]: 110 % of control
T/C [12]: 101 % of control
T/C [15]: 112 % of control
T/C [13]: 108 % of control
T/C [16]: 91 % of control
T/C [14]: 100 % of control

CC(C)(C)c1cc([N+](=O)[O-])cc(C(C)(C)C)c1O
T/C [17]: 90 % of control and 100 % of control
T/C (dose: 25.0 mg/kg/injection, schedule: Q04DX003 (ip), vehicle: Klucel (hydroxypropylcellulose) (HPC)): 100 % of control
T/C [3]: 96 % of control and 109 % of control
T/C (dose: 50.0 mg/kg/injection, schedule: Q04DX003 (ip), vehicle: Klucel (hydroxypropylcellulose) (HPC)): 86 % of control and 88 % of control
T/C [4]: 95 % of control and 96 % of control
T/C [1]: 86 % of control and 88 % of control
T/C [2]: 92 % of control

CCCCCCCCCCC[N+](C)(C)CC[N+](C)(C)CCCCCCCCCCC
T/C (dose: 3.13 mg/kg/injection, schedule: Q01DX009 (ip), vehicle: saline): 107 % of control
T/C [8]: 110 % of control
T/C [9]: 111 % of control

CC(=O)CC(=O)Nc1ccc(N=Nc2ccccc2)cc1
T/C [18]: 109 % of control
T/C [19]: 109 % of control
T/C [20]: 119 % of control

CCOC(=O)/C(C#N)=C/N=c1ncccn1C
T/C [18]: 98 % of control
T/C [19]: 93 % of control
T/C [20]: 102 % of control

O=C(NNc1ccccc1)OCc1ccccc1
T/C (dose: 12.5 mg/kg/injection, schedule: Q01DX009 (ip), vehicle: Klucel (hydroxypropylcellulose) (HPC)): 100 % of control
T/C [17]: 115 % of control
T/C [3]: 110 % of control
T/C (dose: 75.0 mg/kg/injection, schedule: Q04DX003 (ip), vehicle: Klucel (hydroxypropylcellulose) (HPC)): 95 % of control
T/C (dose: 150.0 mg/kg/injection, schedule: Q04DX003 (ip), vehicle: Klucel (hydroxypropylcellulose) (HPC)): 100 % of control
T/C (dose: 300.0 mg/kg/injection, schedule: Q04DX003 (ip), vehicle: Klucel (hydroxypropylcellulose) (HPC)): 90 % of control

CN(C)c1ccc(N=C2C=CC(=O)C=C2)cc1
T/C (dose: 3.13 mg/kg/injection, schedule: Q01DX009 (ip), vehicle: saline with Tween-80): 107 % of control
T/C (dose: 6.25 mg/kg/injection, schedule: Q01DX009 (ip), vehicle: saline with Tween-80): 112 % of control and 117 % of control
T/C (dose: 12.5 mg/kg/injection, schedule: Q01DX009 (ip), vehicle: saline with Tween-80): 110 % of control and 117 % of control
T/C (dose: 25.0 mg/kg/injection, schedule: Q01DX009 (ip), vehicle: saline with Tween-80): 118 % of control

CC1(C)COCN1CN1COCC1(C)C
T/C [10]: 150 % of control
T/C [12]: 155 % of control

C1CCNCC1.O=C([CH-]C(=O)C(F)(F)F)c1cccs1.O=C([CH-]C(=O)C(F)(F)F)c1cccs1.O=C([CH-]C(=O)C(F)(F)F)c1cccs1.O=C([CH-]C(=O)C(F)(F)F)c1cccs1.[Eu+3]
T/C [11]: 122 % of control

OC(CI)C(O)C(O)C(O)CI (stereo unspecified)
T/C [6]: 108 % of control
T/C [11]: 102 % of control
T/C [7]: 102 % of control
T/C [15]: 109 % of control
T/C (dose: 300.0 mg/kg/injection, schedule: Q01DX009 (ip), vehicle: saline with Tween-80): 150 % of control
T/C (dose: 400.0 mg/kg/injection, schedule: Q01DX009 (ip), vehicle: saline with Tween-80): 122 % of control
T/C [16]: 109 % of control
T/C (dose: 600.0 mg/kg/injection, schedule: Q01DX009 (ip), vehicle: saline): 118 % of control

COc1ccc(C(=O)N/N=C(\C)[C@]2(O)Cc3c(O)c4c(c(O)c3[C@@H](OC3CC(N)C(O)C(C)O3)C2)C(=O)c2c(OC)cccc2C4=O)cc1 (stereo partly specified)
T/C (dose: 0.25 mg/kg/injection, schedule: Q01DX009 (ip), vehicle: water): 117 % of control and 123 % of control
T/C (dose: 1.0 mg/kg/injection, schedule: Q01DX009 (ip), vehicle: water): 156 % of control and 212 % of control
T/C (dose: 2.0 mg/kg/injection, schedule: Q01DX009 (ip), vehicle: water): 275 % of control and 156 % of control
T/C (dose: 4.0 mg/kg/injection, schedule: Q01DX009 (ip), vehicle: water): 244 % of control and 107 % of control
T/C (dose: 8.0 mg/kg/injection, schedule: Q01DX009 (ip), vehicle: water): 107 % of control
